Assay results taken from article PMC3368886, “ATPase Cycle and DNA Unwinding Kinetics of RecG Helicase” (PLoS ONE, 2012).
Where “and” joins values, the source holds several entries; their conditions need not be identical. Identical values can stand only once.

What was measured:
RecG = target: T1, RecG (Thermotoga maritima, UniProt Q9WY48); test: ATP hydrolysis during unwinding (phosphate biosensor, heparin trap); format: biochemical; conditions: 200 nM 4-strand complementary junction, 10 nM RecG, 200 µM ATP
T1 construct: made in house
T1 sequence (Q9WY48 1-780): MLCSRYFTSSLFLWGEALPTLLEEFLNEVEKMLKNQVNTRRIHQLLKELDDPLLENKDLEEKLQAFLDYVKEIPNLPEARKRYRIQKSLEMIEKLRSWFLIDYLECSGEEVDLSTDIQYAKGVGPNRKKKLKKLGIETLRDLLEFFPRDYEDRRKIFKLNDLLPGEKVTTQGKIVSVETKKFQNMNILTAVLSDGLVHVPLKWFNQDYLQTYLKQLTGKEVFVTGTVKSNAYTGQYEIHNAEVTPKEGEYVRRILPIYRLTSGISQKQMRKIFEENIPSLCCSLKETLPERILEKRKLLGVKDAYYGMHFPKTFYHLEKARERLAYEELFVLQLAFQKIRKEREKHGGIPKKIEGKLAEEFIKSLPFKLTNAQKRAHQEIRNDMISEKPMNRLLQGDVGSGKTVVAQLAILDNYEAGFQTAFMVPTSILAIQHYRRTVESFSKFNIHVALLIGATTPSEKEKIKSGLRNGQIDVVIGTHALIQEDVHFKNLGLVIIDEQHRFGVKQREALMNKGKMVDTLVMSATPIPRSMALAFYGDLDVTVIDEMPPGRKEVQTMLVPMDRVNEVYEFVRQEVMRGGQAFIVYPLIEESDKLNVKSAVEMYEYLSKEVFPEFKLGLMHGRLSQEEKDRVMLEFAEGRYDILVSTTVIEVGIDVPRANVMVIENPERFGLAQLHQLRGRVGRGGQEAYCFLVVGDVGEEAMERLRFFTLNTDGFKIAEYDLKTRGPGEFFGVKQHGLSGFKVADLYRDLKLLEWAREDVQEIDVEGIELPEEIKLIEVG
Description: The rate of ATP hydrolysis and total ATP usage during unwinding were measured using the phosphate biosensor (Figure 8), following rapid mixing of ATP with the RecG⋅DNA complex. […] Heparin is a potent inhibitor of many helicases, mimicking the DNA substrate and binding tightly to the enzyme, once the latter dissociates from the DNA, and so prevents rebinding of the helicase to fresh DNA substrates. The initial, rapid phase, which represents unwinding of the first DNA junction, was unaffected by the presence of heparin. […] RecG will continue to hydrolyze ATP while bound to the DNA substrate.
Figure 8 ATP hydrolysis during unwinding 4-strand complementary junctions. Junctions of varying arm lengths (shown in b.p.) were used to measure the rate of ATP hydrolysis during unwinding. RecG was pre-incubated with junction and the reactions were initiated by rapid mixing with ATP and heparin. […]
The ATPase measurement was repeated with different lengths of lagging and leading strands, as used in the unwinding measurements, in the presence of heparin (Figure 8 main panel). […] The ATPase rate measured here is similar to the steady-state and hydrolysis rate constants measured in the above sections, supporting the idea that the ATP hydrolysis reaction is not greatly affected by the type of junction.

RecG⋅DNA(A40:B40) = target: T2, RecG⋅DNA(A40:B40) (Thermotoga maritima, UniProt Q9WY48); test: Single turnover mant fluorescence, excess RecG⋅DNA over mantATP; format: biochemical
T2 construct: made in house
T2 sequence (Q9WY48 1-780): T1 sequence (Q9WY48 1-780)
Description: Extra information relating to changes in a single ATPase cycle can be obtained by mixing excess RecG⋅DNA(A40:B40) with mantATP (Figure 4A). […] The first change in fluorescence is presumably due to binding. After fitting to a double exponential, the observed rate constant for the initial change was linearly dependent on RecG concentration over the small range possible (0.5 µM –2.5 µM), limited by protein precipitation at higher concentrations. Due to the low concentrations, a hyperbolic dependence would not be observed. The observed rate constant of the second increase in fluorescence, 0.22 (±0.05) s^−1 (Figure 4A), was independent of RecG concentration. This second phase is likely to be due to the cleavage step, leading to the formation of bound mantADP.
Figure 4 Kinetic measurement of mantATP with excess of RecG and DNA: binding, hydrolysis and Pi release. The concentrations for all experiments were 0.5 µM mantATP, 2.5 µM RecG, 5 µM DNA (A40:B40) and 10 µM MDCC-PBP (for Pi measurement). All measurements were carried out at 20°C in the buffer described in Materials and Methods. (A) Time course of mant fluorescence (solid line), mantADP formation (circles) and Pi release (dashed line), measured as described in materials and methods. […] (B) Simulation of these time courses, based upon a global model for a single turnover of mantATP as described in the text. (C) The time course of mant fluorescence upon mixing 0.5 µM mantATP and 2.5 µM RecG with 5 µM DNA junction (A40:B40) after a first mixing of 5 µM RecG and 1 µM mantATP and aging for 1 s.
Stopped-flow experiments were performed in a HiTech SF61DX2 apparatus (TgK Scientific Ltd, Bradford-on-Avon, UK) with a mercury-xenon light source and HiTech KinetAsyst 3 or Kinetic Studio 1 software. For MDCC-PBP fluorescence, the excitation wavelength used was 436 nm and a 455 nm cut-off filter (Schott glass) used to collect emitted light. The signal was calibrated using known concentrations of Pi. The solutions contained the Pi mop, to minimize phosphate contamination and comprising 0.01 unit ml^−1 bacterial purine nucleoside phosphorylase and 200 µM 7-methylguanosine. For mant fluorescence, 366 nm was used to excite and a 400 nm cut-off filter (Schott glass) used to collect light. Measurements of Cy3 fluorescence used 547 nm excitation and a 570 nm cut-off filter. In experiments described, the quoted concentrations are those in the mixing chamber, except where stated. Data were fitted to theoretical curves using the HiTech software or Grafit.

Row | Structure (SMILES) | rate of ATP hydrolysis during unwinding phase (RecG) | observed rate constant of the second increase in fluorescence (RecG⋅DNA(A40:B40); 0.5 µM mantATP, excess RecG⋅DNA, independent of RecG concentration) | k +2 (cleavage step) (RecG⋅DNA(A40:B40); 20°C) | initial small increase in fluorescence as part of overall change (RecG⋅DNA(A40:B40); excess RecG⋅DNA over mantATP) | fluorescence intensity increase of bound nucleotide relative to free nucleotide (RecG⋅DNA(A40:B40); excess RecG⋅DNA(A40:B40))
1 | Nc1ncnc2c1ncn2[C@@H]1O[C@H](COP(=O)(O)OP(=O)(O)OP(=O)(O)O)[C@@H](O)[C@H]1O [ATP] | 5.8 s⁻¹ |  |  |  | 
2 | CNc1ccccc1C(=O)O[C@H]1[C@@H](O)[C@H](n2cnc3c(N)ncnc32)O[C@@H]1COP(=O)(O)OP(=O)(O)OP(=O)(O)O [mantATP, 2′(3′)-O-(N-methylanthraniloyl)ATP] |  | 0.22 (±0.05) s^−1 | 0.2 s⁻¹ and 0.22 s⁻¹ | ~20% | 1.5 fold
